Patent US10308632B2, “Antifungal compounds and processes for making” (VPS-3, Inc., priority 2015, dated 2019)

Legend:
Assay type in all cases: physicochemical
[1] = Gravimetric/dynamic vapor sorption (GVS/DVS) moisture sorption isotherm; settings: for GVS hysteresis: 0-90% RH range; for moisture uptake by GVS: at 90% RH; for GVS water uptake: over 0-90% RH range, 25° C.; for XRPD post GVS: sample re-analysed by XRPD after isotherm
Description: Gravimetric Vapor Sorption (GVS) isotherms were obtained using a SMS DVS Intrinsic moisture sorption analyser, controlled by DVS Intrinsic Control software v1.0.1.2 (or v 1.0.1.3). The sample temperature was maintained at 25° C. by the instrument controls. The humidity was controlled by mixing streams of dry and wet nitrogen, with a total flow rate of 200 mL/min The relative humidity was measured by a calibrated Rotronic probe (dynamic range of 1.0-100% RH), located near the sample. The weight change, (mass relaxation) of the sample as a function of % RH was constantly monitored by the microbalance (accuracy ±0.005 mg). Typically. 10-15 mg of sample was placed in a tared mesh stainless steel basket under ambient conditions. The sample was loaded and unloaded at 40% RH and 25° C. (typical room conditions). A moisture sorption isotherm was performed as outlined below (2 scans giving 1 complete cycle). The standard isotherm was performed at 25° C. at 10% RH intervals over a 0-90% RH range. Data analysis was undertaken in Microsoft Excel using DVS Analysis Suite v6.2 (or 6.1 or 6.0). [table] The sample was recovered after completion of the isotherm and re-analysed by XRPD.

[2] = XRPD stability after 7 days storage at elevated humidity
Description: X-Ray Powder Diffraction patterns were collected on a Bruker AXS C2 GADDS diffractometer using Cu Kα radiation (40 kV, 40 mA), automated XYZ stage, laser video microscope for auto-sample positioning and a HiStar 2-dimensional area detector. X-ray optics consists of a single Göbel multilayer mirror coupled with a pinhole collimator of 0.3 mm. A weekly performance check is carried out using a certified standard NIST 1976 Corundum (flat plate). The beam divergence, i.e. the effective size of the X-ray beam on the sample, was approximately 4 mm. A Θ-Θ continuous scan mode was employed with a sample—detector distance of 20 cm which gives an effective […] of 3.2°-29.7°. Typically the sample would be exposed to the X-ray beam for 120 seconds. The software used for data collection was GADDS for XP/2000 4.1.43 and the data were analysed and presented using Diffrac Plus EVA v13.0.0.2 or v15.0.0.0. Samples run under ambient conditions were prepared as flat plate specimens using powder as received without grinding. Approximately 1-2 mg of the sample was lightly pressed on a glass slide to obtain a flat surface. Samples run under non-ambient conditions were mounted on a silicon wafer with heat-conducting compound. The sample was then heated to the appropriate temperature at 30° C./min and subsequently held isothermally for 1 minute before data collection was initiated. X-Ray Powder Diffraction patterns were also collected on a Bruker D8 diffractometer using Cu Kα radiation (40 kV, 40 mA), θ-2θ goniometer, and divergence of V4 and receiving slits, a Ge monochromator and a Lynxeye detector. The instrument is performance checked using a certified Corundum standard (NIST 1976). The software used for data collection was Diffrac Plus XRD Commander v2.6.1 and the data were analysed and presented using Diffrac Plus EVA v15.0.0.0. Samples were run under ambient conditions as flat plate specimens using powder as received. The sample was gently packed into a cavity cut into polished, zero-background (510) silicon wafer. The sample was rotated in its own plane during analysis. The details of the data collection are: Angular range: 2 to 42° 2 θ; Step size: 0.05° 2θ; Collection time: 0.5 s/step.

[3] = Thermo-gravimetric analysis (TGA), decomposition onset; settings: heated at 10° C./min
Description: Thermo-gravimetric analysis (TGA) data were collected on a TA Instruments Discovery TGA, equipped with a 25 position auto-sampler. The instrument was temperature calibrated using certified alumel and nickel. Typically, 3-10 mg of each sample was loaded onto a pre-tared aluminium pan and heated at 10° C./min from ambient temperature to 350° C. A nitrogen purge at 25 mL/min was maintained over the sample. The instrument control and data analysis software was TRIOS v3.2.0.3877.

[4] = Competitive slurry experiments of Form 1 and Form 2 (thermodynamic stability); settings: temperature range investigated (5° C., 25° C., 50° C.)
Description: The melt of Form 1 of compound 5 was determined by DSC to be at 129.0° C. with an enthalpy of −46 J/g. A melt endotherm was not determined for Form 2 as it transforms to Form 1 upon heating at different rates. […] These experiments were performed in IPA, ethanol and toluene. To conduct these experiments a solid mixture of Forms 1 and 2 (<18 mg per sample) was suspended in the corresponding saturated solution of compound 5 and stirred at the desired temperature. Saturated solutions of compound 5 were prepared at 50° C. by dissolving 40 mg, 60 mg and 200 mg of sample in 1.4 mL of IPA, 0.8 mL of ethanol and 0.8 mL of toluene, respectively. The slurries were filtered, air-dried and analyzed by XRPD after stirring for up to 10 days at the desired temperature. […] All the experiments except for that performed in IPA at 5° C. gave pure Form 1.

[5] = Variable temperature XRPD (VT-XRPD), polymorph conversion; settings: upon heating
Description: X-Ray Powder Diffraction patterns were collected on a Bruker AXS C2 GADDS diffractometer using Cu Kα radiation (40 kV, 40 mA), automated XYZ stage, laser video microscope for auto-sample positioning and a HiStar 2-dimensional area detector. X-ray optics consists of a single Göbel multilayer mirror coupled with a pinhole collimator of 0.3 mm. A weekly performance check is carried out using a certified standard NIST 1976 Corundum (flat plate). The beam divergence, i.e. the effective size of the X-ray beam on the sample, was approximately 4 mm. A Θ-Θ continuous scan mode was employed with a sample—detector distance of 20 cm which gives an effective […] of 3.2°-29.7°. Typically the sample would be exposed to the X-ray beam for 120 seconds. The software used for data collection was GADDS for XP/2000 4.1.43 and the data were analysed and presented using Diffrac Plus EVA v13.0.0.2 or v15.0.0.0. Samples run under ambient conditions were prepared as flat plate specimens using powder as received without grinding. Approximately 1-2 mg of the sample was lightly pressed on a glass slide to obtain a flat surface. Samples run under non-ambient conditions were mounted on a silicon wafer with heat-conducting compound. The sample was then heated to the appropriate temperature at 30° C./min and subsequently held isothermally for 1 minute before data collection was initiated. […]

| GVS hysteresis [1] | moisture uptake by GVS [1] [%] | GVS water uptake [1] | XRPD post GVS [1] | XRPD stability post 7 days ([2]; 25° C. & 96% RH) | XRPD stability post 7 days ([2]; 40° C. & 75% RH) | stability after 7 days storage at elevated humidity conditions [2] | TGA decomposition onset [3] | thermodynamic stability of the pair Form 1/Form 2 [4] | VT-XRPD: conversion to Form 1 starts at [5] | SMILES |
| --- | --- | --- | --- | --- | --- | --- | --- | --- | --- | --- |
| (slight hysteresis observed) | ~1.3 | ca. 1.3% water uptake over | unchanged | Unchanged by XRPD | Unchanged by XRPD | stable | Decomposition onset at ~200 °C | thermodynamically stable form | – | N#Cc1ccc(COc2ccc(C#Cc3ccc(C(F)(F)[C@](O)(Cn4cnnn4)c4ccc(F)cc4F)nc3)cc2)cc1 [Compound 5 (Anhydrous Form 1)] |
| (no hysteresis observed) | ~0.7 | ca. 0.7% water uptake over | unchanged | Unchanged by XRPD | Unchanged by XRPD | remained stable | Decomposition onset at ~200 °C | – | at 105 °C | N#Cc1ccc(COc2ccc(C#Cc3ccc(C(F)(F)[C@](O)(Cn4cnnn4)c4ccc(F)cc4F)nc3)cc2)cc1 [Compound 5 (Anhydrous Form 2)] |
| (no hysteresis observed) | ~1.6 | ca. 1.6% water uptake over | unchanged | Unchanged by XRPD | Unchanged by XRPD | stable | Decomposition onset at ~300 °C | – | – | N#Cc1ccc(COc2ccc(C#Cc3ccc(C(F)(F)[C@](O)(Cn4cnnn4)c4ccc(F)cc4F)nc3)cc2)cc1 [Compound 14] |
